PubChem BioAssay AID256 (DTP/NCI, 2004)
Several values for one entry are separate records, joined by “and”; a condition that tells them apart may be missing. Identical values can stand only once. Inconclusive results and toxic doses are left out.

System: CD2F1 mice, L1210 leukemia ip, survival T/C
Assay: NCI In Vivo Anticancer Drug Screen. Data for tumor model L1210 Leukemia (intraperitoneal) in CD2F1 (CDF1) mice
Conditions: endpoint: mean survival time, higher = longer survival
How it was run: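 Mice carrying a transplanted tumor received test compound or vehicle alone. The value is the measurement in the treated group divided by that in the vehicle-treated control group.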

[1] = dose: 6.25 mg/kg/injection, schedule: Q01DX005 (ip), vehicle: other
[2] = dose: 12.5 mg/kg/injection, schedule: Q01DX005 (ip), vehicle: other
[3] = dose: 100.0 mg/kg/injection, schedule: Q01DX001 (ip), vehicle: acetone
[4] = dose: 200.0 mg/kg/injection, schedule: Q01DX001 (ip), vehicle: acetone
[5] = dose: 400.0 mg/kg/injection, schedule: Q01DX001 (ip), vehicle: acetone

## C1OCN2CSCC12 (stereo unspecified)
dose: 12.5 mg/kg/injection, schedule: Q01DX009 (ip), vehicle: saline with Tween-80
  T/C: 93 % of control and 96 % of control
dose: 25.0 mg/kg/injection, schedule: Q01DX009 (ip), vehicle: saline with Tween-80
  T/C: 98 % of control and 100 % of control
dose: 50.0 mg/kg/injection, schedule: Q01DX009 (ip), vehicle: saline with Tween-80
  T/C: 98 % of control and 102 % of control
dose: 100.0 mg/kg/injection, schedule: Q01DX009 (ip), vehicle: saline with Tween-80
  T/C: 101 % of control and 103 % of control
dose: 200.0 mg/kg/injection, schedule: Q01DX009 (ip), vehicle: saline with Tween-80
  T/C: 104 % of control and 108 % of control
dose: 400.0 mg/kg/injection, schedule: Q01DX009 (ip), vehicle: saline with Tween-80
  T/C: 110 % of control

## CC1(C)CC(O)C2(C)CCC3(C)C(=CCC4C5(C)CCC(O)C(C)(CO)C5CCC43C)C2C1 (stereo unspecified) (tested in a mixture with another compound)
dose: 100.0 mg/kg/injection, schedule: Q04DX002 (ip), vehicle: saline with Tween-80
  T/C: 102 % of control
dose: 200.0 mg/kg/injection, schedule: Q04DX002 (ip), vehicle: saline with Tween-80
  T/C: 98 % of control
dose: 400.0 mg/kg/injection, schedule: Q04DX002 (ip), vehicle: saline with Tween-80
  T/C: 107 % of control

## CN1C(/C(C(=O)C(F)(F)F)=C(\O)C(F)(F)F)=NCc2ccccc21
dose: 100.0 mg/kg/injection, schedule: Q04DX003 (ip), vehicle: Klucel (hydroxypropylcellulose) (HPC)
  T/C: 102 % of control
dose: 200.0 mg/kg/injection, schedule: Q04DX003 (ip), vehicle: Klucel (hydroxypropylcellulose) (HPC)
  T/C: 98 % of control
dose: 400.0 mg/kg/injection, schedule: Q04DX003 (ip), vehicle: Klucel (hydroxypropylcellulose) (HPC)
  T/C: 98 % of control

## C=CCSc1ncnc2c1c1c(N)ncnc1n2C1OC(CO)C(O)C1O (stereo unspecified)
[1]
  T/C: 103 % of control
[2]
  T/C: 109 % of control
dose: 25.0 mg/kg/injection, schedule: Q01DX005 (ip), vehicle: other
  T/C: 101 % of control
dose: 50.0 mg/kg/injection, schedule: Q01DX005 (ip), vehicle: other
  T/C: 107 % of control
dose: 100.0 mg/kg/injection, schedule: Q01DX005 (ip), vehicle: other
  T/C: 103 % of control
dose: 200.0 mg/kg/injection, schedule: Q01DX005 (ip), vehicle: other
  T/C: 109 % of control

## OCCCl
dose: 75.0 mg/kg/injection, schedule: Q01DX001 (ip), vehicle: saline
  T/C: 104 % of control
dose: 150.0 mg/kg/injection, schedule: Q01DX001 (ip), vehicle: saline
  T/C: 103 % of control

## CC(C)C1CCC(C)C23CCC(=O)C2C13 (stereo unspecified)
[3]
  T/C: 100 % of control
[4]
  T/C: 95 % of control
[5]
  T/C: 110 % of control

## Cc1ccc2c(c1)-c1[nH]c3ccccc3c1CS2
dose: 50.0 mg/kg/injection, schedule: Q01DX009 (ip), vehicle: Klucel (hydroxypropylcellulose) (HPC)
  T/C: 109 % of control
dose: 100.0 mg/kg/injection, schedule: Q01DX009 (ip), vehicle: Klucel (hydroxypropylcellulose) (HPC)
  T/C: 107 % of control
dose: 200.0 mg/kg/injection, schedule: Q01DX009 (ip), vehicle: Klucel (hydroxypropylcellulose) (HPC)
  T/C: 107 % of control

## COc1cc2c(c(OC)c1OC)-c1ccc(OC)c(=O)cc1[C@@H](N(C)C(C)=O)CC2
dose: 0.06 mg/kg/injection, schedule: Q01DX005 (ip), vehicle: Klucel (hydroxypropylcellulose) (HPC)
  T/C: 103 % of control
dose: 0.13 mg/kg/injection, schedule: Q01DX005 (ip), vehicle: Klucel (hydroxypropylcellulose) (HPC)
  T/C: 104 % of control
dose: 0.25 mg/kg/injection, schedule: Q01DX005 (ip), vehicle: Klucel (hydroxypropylcellulose) (HPC)
  T/C: 110 % of control
dose: 1.0 mg/kg/injection, schedule: Q01DX005 (ip), vehicle: Klucel (hydroxypropylcellulose) (HPC)
  T/C: 150 % of control

## CC(=O)C1CN(C(C)(C)C)C1
dose: 6.25 mg/kg/injection, schedule: Q01DX009 (ip), vehicle: saline
  T/C: 93 % of control
dose: 6.25 mg/kg/injection, schedule: Q04DX003 (ip), vehicle: saline
  T/C: 98 % of control
dose: 12.5 mg/kg/injection, schedule: Q01DX009 (ip), vehicle: saline
  T/C: 98 % of control
dose: 12.5 mg/kg/injection, schedule: Q04DX003 (ip), vehicle: saline
  T/C: 96 % of control
dose: 25.0 mg/kg/injection, schedule: Q01DX009 (ip), vehicle: saline
  T/C: 98 % of control
dose: 25.0 mg/kg/injection, schedule: Q04DX003 (ip), vehicle: saline
  T/C: 95 % of control

## O=C(/C=C\c1ccccc1)C(=O)/C=C/c1ccccc1
dose: 100.0 mg/kg/injection, schedule: Q04DX003 (ip), vehicle: saline with Tween-80
  T/C: 94 % of control
dose: 200.0 mg/kg/injection, schedule: Q04DX003 (ip), vehicle: saline with Tween-80
  T/C: 93 % of control
dose: 400.0 mg/kg/injection, schedule: Q04DX003 (ip), vehicle: saline with Tween-80
  T/C: 95 % of control

## COc1ccc(-n2c(=O)c(N=Nc3ccccc3)c(O)n(-c3ccc(C)cc3)c2=S)cc1
[3]
  T/C: 96 % of control
[4]
  T/C: 94 % of control
[5]
  T/C: 96 % of control

## Nc1ncnc2c1ncn2C1OC(CO)C2[O][Sn]([c]3ccccc3)([c]3ccccc3)[O]C21 (stereo unspecified)
dose: 1.56 mg/kg/injection, schedule: Q01DX005 (ip), vehicle: other
  T/C: 107 % of control
dose: 3.13 mg/kg/injection, schedule: Q01DX005 (ip), vehicle: other
  T/C: 105 % of control
[1]
  T/C: 100 % of control
[2]
  T/C: 90 % of control and 107 % of control
